Assay results: patent US4087461A, “Anti-androgenic steroids” (The Johns Hopkins University, priority 1977, dated 1978)
“Also recorded” adds a separate entry of the source.

Experiments:
[1] = target: T1, Δ^5 -3-ketosteroid isomerase (EC 5.3.3.1) (Comamonas testosteroni, UniProt P00947); test: irreversible inactivation of crystalline purified bacterial Δ^5-3-ketosteroid isomerase by acetylenic steroids (Kitz and Wilson kinetic analysis); format: biochemical, Pseudomonas testosteroni
Experimental: The inactivation is progressive with time, and half-lives in the range of 150-1320 sec are observed at concentrations of 20-200 μM of the two inhibitors. The enzymatic activities of control vessels which received only equivalent volumes of 1,4-dioxane remained constant at initial activities.
The initial rates of inactivation of the isomerase by (1) and (2) can be analyzed by the method of Kitz and Wilson^8 since very satisfactory pseudo-first-order behavior was observed. It is assumed that [I] (inhibitor) >> [E] (enzyme), that [E.I] (the reversible enzyme-inhibitorcomplex) is at all times in equilibrium with enzyme and inhibitor, and that ^k cat >> ^k inh. The scheme for the formation of EI' (the irreversible enzyme-inhibitor derivative) may then be represented as follows.
If the enzyme-inhibitor solution is diluted extensively prior to assay, the active enzyme (ε) = [E] + [E.I]. Then -d(ε)/dt = k3 [E.I.], and K1 = ([E][I])/[EI]. Thus [formula] where Et = total amount of enzyme in system.
If one defines [formula] Consequently double reciprocal plots of kapp with respect to [I] should be linear, with slopes and intercepts permitting the determination of K1 and k3 where the latter is the overall rate constant for the irreversible inhibition process.
From plots of 1n ε (residual enzymatic activity) vs. time, kapp has been determined at five inhibitor concentrations for both compounds 1 and 2, i.e. estryne and pregnyne. Strict linearity of the semilogarithmic plots has been observed in all cases, over greater than two half-lives. A plot of 1/kapp vs. 1/[I] was linear and gave k3 and K1 (FIG. 1). For compound 1, K1 = 56 μM and k3 = 1.98 × 10^-3 sec^-1, and for compound 2, K1 = 32 μM and k3 = 4.10 × 10^-3 sec^-1.
Studies were performed using crystalline purified bacterial Δ^5 -3-ketosteroid isomerase (from P. testosteroni), under pseudo first order conditions using the kinetic analysis of R. Kitz and I. B. Wilson [J. Biol. Chem., 237, 3245 (1964)].

[2] = target: T2, cytosol androgen receptor (prostate androgen binding protein) (Rattus norvegicus, UniProt P15207); test: inhibition of nuclear uptake of ^3H-dihydrotestosterone in ventral prostate minces (binding to the prostatic androgen receptor)
T2 construct: freshly minced ventral prostate tissue obtained from rats castrated 24 hours before sacrifice; from tissue; host or cells: ventral prostate minces of castrated rats
T2 sequence (P15207 1-902): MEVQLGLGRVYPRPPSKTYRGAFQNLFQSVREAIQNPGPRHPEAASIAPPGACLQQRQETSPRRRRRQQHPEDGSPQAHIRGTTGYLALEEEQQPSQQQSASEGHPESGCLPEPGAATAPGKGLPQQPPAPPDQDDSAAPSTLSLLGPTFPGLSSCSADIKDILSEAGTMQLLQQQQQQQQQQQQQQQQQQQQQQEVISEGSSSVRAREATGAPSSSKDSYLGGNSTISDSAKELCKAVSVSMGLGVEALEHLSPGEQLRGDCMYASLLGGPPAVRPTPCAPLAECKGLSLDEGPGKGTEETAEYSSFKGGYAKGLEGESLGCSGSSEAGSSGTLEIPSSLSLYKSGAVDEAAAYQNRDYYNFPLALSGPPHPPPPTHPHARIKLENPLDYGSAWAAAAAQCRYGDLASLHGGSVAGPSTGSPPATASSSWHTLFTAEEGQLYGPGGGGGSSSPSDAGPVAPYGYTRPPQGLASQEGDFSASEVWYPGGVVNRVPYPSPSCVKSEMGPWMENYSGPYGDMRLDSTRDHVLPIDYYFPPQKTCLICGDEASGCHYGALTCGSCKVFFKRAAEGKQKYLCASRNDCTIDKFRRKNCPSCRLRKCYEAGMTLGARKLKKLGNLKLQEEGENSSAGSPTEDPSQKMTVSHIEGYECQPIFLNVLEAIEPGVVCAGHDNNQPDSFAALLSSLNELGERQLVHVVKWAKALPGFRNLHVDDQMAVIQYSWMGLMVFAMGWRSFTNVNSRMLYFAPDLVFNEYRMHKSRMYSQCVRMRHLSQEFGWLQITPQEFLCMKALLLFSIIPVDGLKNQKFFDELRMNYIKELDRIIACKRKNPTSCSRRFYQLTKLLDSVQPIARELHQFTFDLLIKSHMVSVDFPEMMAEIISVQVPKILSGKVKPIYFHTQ
Experimental: The binding to the cytosol androgen receptor was determined by the procedure of Fang (5) with modification. […] The amount of radioactivity in the nuclei is expressed as observed counts per minute per 100 μg DNA.

[3] = system: endogenous androgen biosynthesis; test: study in intact male rats: weights of sex accessory tissue and other organs; format: in vivo, male Sprague-Dawley rats; conditions: 7 days; for Adrenal weight (± Sem): control 28 ± 2; for Dorsal Lateral Prostate weight (± Sem): control 252 ± 14; for Seminal Vesicles weight (± Sem): control 470 ± 26; for Ventral Prostate weight (± Sem): control 482 ± 24; for Kidney weight (± Sem): control 1410 ± 38; for Testis weight (± Sem): control 1580 ± 23
Experimental: Studies with intact male Sprague-Dawley rats (300g body weight) are illustrated for compounds (1) and (2).
Similarly, compound (2), […] rats at a dosage of 20mg per kilo for 7 days produced 20% reduction in weight of the ventral prostate and 28% reduction of the dorsal lateral prostate.
The following data illustrates the inhibiting effect of estryne and pregnyne on Δ^5 -3-ketosteroid isomerase (EC 5.3.3.1) as evidenced by a depression of the wet weight of the sex accessory tissue in the mature male rat treated with the estryne and pregnyne.
A. Male rats were used to assess the effect of estryne on endogenous androgen biosynthesis at varying doses (1-20 mg/kg body weight). […] On the eighth day the animals were sacrificed and the ventral prostate, dorsal lateral prostate, seminal vesicles, testes, kidneys, and adrenals were removed and weighed. Samples of each tissue were preserved in 10% buffered formalin for histological examination.
B. Male rats were treated with 19-norpregnyne by a regimen exactly as described for the estryne.

[4] = target: T1, Δ^5 -3-ketosteroid isomerase (EC 5.3.3.1); test: irreversible inactivation of crystalline purified bacterial Δ^5-3-ketosteroid isomerase by acetylenic steroids (Kitz and Wilson kinetic analysis); format: biochemical, Pseudomonas testosteroni; conditions: 24 hr at 4° vs. 1 mM potassium phosphate buffer, pH 7.0
[5] = 20mg per kilo per day, i.p. in propylene glycol

T1 sequence (P00947 whole entry, stated change not applied): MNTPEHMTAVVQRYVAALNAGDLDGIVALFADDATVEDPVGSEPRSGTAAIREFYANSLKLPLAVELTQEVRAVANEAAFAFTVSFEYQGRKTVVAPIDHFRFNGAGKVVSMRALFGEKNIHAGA

## CC(=O)[C@H]1CC[C@H]2[C@@H]3CC#CCC(=O)CCC(=O)[C@H]3CC[C@]12C [Compound 2, 5,10-seco-19-norpregn-5-yne-3,10,20-trione]
[1]; in words
  irreversible inhibition / inactivation of the enzyme: rapid irreversible inhibition; also recorded: rapid irreversible and complete inactivation of the enzyme; also recorded: Powerful irreversible inhibition
[1]; pH 7.0, 20-200 μM of the two inhibitors, in 1,4-dioxane
  half-life of enzyme inactivation: 2.5 to 22 min
[1]; pH 7, pseudo first order conditions, five inhibitor concentrations (10-fold range), read-out: k3, overall rate constant for the irreversible inhibition process
  kinact: 0.0041 s⁻¹
[1]; pseudo first order conditions, five inhibitor concentrations (10-fold range), read-out: K1 (KI), inhibitor dissociation constant
  Ki: 32 µM
[2]; rat, 1 h, pH 7.4, steroid 2 × 10^-6 M with ^3H-DHT 2 × 10^-9 M, read-out: nuclear uptake of ^3H-DHT, % Control
  remaining activity at 2 µM: 137%
[2]; steroid 2 × 10^-6 M with ^3H-DHT 2 × 10^-9 M, control 8,471
  CPM/100 DNA (nuclear uptake of ^3H-DHT): 11,636 CPM/100 DNA
[2]; ventral prostate minces, in words
  inhibition of androgen uptake by the nuclei: no inhibition of androgen uptake by the nuclei
[3]; [5]
  reduction in weight of the dorsal lateral prostate: 28%
  reduction in weight of the ventral prostate: 20%
[3]; 1-20 mg/kg, in words
  dose dependence of the effect on prostatic weight: dose dependent
[3]; pregnyne 1 mg/kg daily i.p.
  Adrenal weight (± Sem): 22 ± 2 mg
  Dorsal Lateral Prostate weight (± Sem): 205 ± 14 mg
  Seminal Vesicles weight (± Sem): 423 ± 21 mg
  Ventral Prostate weight (± Sem): 405 ± 18 mg
  Kidney weight (± Sem): 1360 ± 48 mg
  Testis weight (± Sem): 1530 ± 68 mg
[3]; pregnyne 5 mg/kg daily i.p.
  Adrenal weight (± Sem): 25 ± 2 mg
  Dorsal Lateral Prostate weight (± Sem): 208 ± 11 mg
  Seminal Vesicles weight (± Sem): 384 ± 17 mg
  Ventral Prostate weight (± Sem): 402 ± 27 mg
  Kidney weight (± Sem): 1370 ± 42 mg
  Testis weight (± Sem): 1510 ± 44 mg
[3]; pregnyne 10 mg/kg daily i.p.
  Adrenal weight (± Sem): 26 ± 1 mg
  Dorsal Lateral Prostate weight (± Sem): 182 ± 19 mg
  Seminal Vesicles weight (± Sem): 390 ± 14 mg
  Ventral Prostate weight (± Sem): 386 ± 20 mg
  Kidney weight (± Sem): 1310 ± 60 mg
  Testis weight (± Sem): 1530 ± 53 mg
[3]; pregnyne 20 mg/kg daily i.p.
  Adrenal weight (± Sem): 31 ± 2 mg
  Dorsal Lateral Prostate weight (± Sem): 180 ± 14 mg
  Seminal Vesicles weight (± Sem): 380 ± 9 mg
  Ventral Prostate weight (± Sem): 360 ± 21 mg
  Kidney weight (± Sem): 1360 ± 43 mg
  Testis weight (± Sem): 1480 ± 63 mg
[4]
  restoration of enzymatic activity by prolonged dialysis: inability to restore enzymatic activity
